From ChEMBL document CHEMBL1201862, “PubChem BioAssay data set” (2004)
“And” between values parts separate entries of the source, which are not always exact repeats. Equal entries are not always repeated.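 Growth conditions: 96-well plates. Treatment: test compound, 48 hours, 5 concentrations. Analysis: linear interpolation between bracketing concentrations; unreached endpoints set to highest concentration. Abbreviation: GI50, concentration required for 50% inhibition of growth.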 The source made the active and inactive calls. No stated cut-off is given here; in the data, active = GI50 up to about 1.1 µM and inactive = higher. Residues, ends and D or L forms follow the SMILES beside them. *: point of attachment. X38 = O=C(c1ccc(-c2ccc(Cl)cc2Cl)o1)*

How the values were obtained:
Experiment in all cases: growth of human tumour cells (NCI), 48 h
BT-549 = test system: BT-549
SK-MEL-28 = test system: SK-MEL-28
SF-295 = test system: SF-295
T47D = test system: T47D
NCI/ADR-RES = test system: NCI/ADR-RES
SN12C = test system: SN12C
HOP-92 = test system: HOP-92
HCT-116 = test system: HCT-116
MOLT-4 = test system: MOLT-4
MDA-MB-231 = test system: MDA-MB-231
MCF7 = test system: MCF7
M14 = test system: M14
HCT-15 = test system: HCT-15
A549 = test system: A549
K562 = test system: K562
UACC-62 = test system: UACC-62
NCI-H522 = test system: NCI-H522
SR = test system: SR
HT-29 = test system: HT-29

SMILES	GI50 (BT-549)	GI50 (SK-MEL-28)	GI50 (SF-295)	GI50 (T47D)	GI50 (NCI/ADR-RES)	GI50 (SN12C)	GI50 (HOP-92)	GI50 (HCT-116)	GI50 (MOLT-4)	GI50 (MDA-MB-231)	GI50 (MCF7)	GI50 (M14)	GI50 (HCT-15)	GI50 (A549)	GI50 (K562)	GI50 (UACC-62)	GI50 (NCI-H522)	GI50 (SR)	GI50 (HT-29)
COc1cc2c(cc1OC)C1Cc3cc(OC)c(OC)cc3C(C2)N1C	> 75 µM (inactive)	> 100 µM (inactive)	40.6 µM (inactive)	> 75 µM (inactive)	> 75 µM (inactive)	> 100 µM (inactive) and 62.5 µM (inactive)	7.71 µM (inactive)	26.9 µM (inactive)	> 75 µM (inactive)	0.0297 µM (active)	> 75 µM (inactive)	> 100 µM (inactive)	> 100 µM	> 100 µM (inactive)	> 100 µM (inactive)	61.1 µM (inactive)	> 100 µM (inactive)	–	–
Brc1ccc2c(c1)C1=C(CO2)Cc2ccccc2O1	18.2 µM (inactive)	–	18.1 µM (inactive)	13.1 µM (inactive)	23 µM (inactive)	18.8 µM (inactive)	15.6 µM (inactive)	16.4 µM (inactive)	20 µM (inactive)	16.4 µM (inactive)	–	19.3 µM (inactive)	17.3 µM	21.6 µM (inactive)	16.2 µM (inactive)	17.2 µM (inactive)	19.7 µM (inactive)	36.2 µM (inactive)	23.3 µM (inactive)
COC(=O)c1c(C)cccc1CC1Cc2c(C)cccc2C1=O (configuration not stated)	35.9 µM (inactive)	55.8 µM (inactive)	32.8 µM (inactive)	27.5 µM (inactive)	19.9 µM (inactive)	43.4 µM (inactive)	24.4 µM (inactive)	25.9 µM (inactive)	24.4 µM (inactive)	32.4 µM (inactive)	–	31.5 µM (inactive)	25.8 µM	28.4 µM (inactive)	29.6 µM (inactive)	23.8 µM (inactive)	13.2 µM (inactive)	–	30.5 µM (inactive)
ClCCCc1ccccc1C1=NCCc2ccccc21	21 µM (inactive)	> 100 µM (inactive)	> 100 µM (inactive)	31.3 µM (inactive)	> 100 µM (inactive)	48.4 µM (inactive)	81.1 µM (inactive)	42.4 µM (inactive)	82.4 µM (inactive)	> 100 µM (inactive)	66.2 µM (inactive)	> 100 µM (inactive)	> 100 µM	54.2 µM (inactive)	13.7 µM (inactive)	56.2 µM (inactive)	25.5 µM (inactive)	–	28.5 µM (inactive)
CSc1nc(C)cc(Nc2ccc(O)c(CN3CCCCC3)c2)n1	> 100 µM (inactive)	28.8 µM (inactive)	37.9 µM (inactive)	68.1 µM (inactive)	> 100 µM (inactive)	56.6 µM (inactive)	72.4 µM (inactive)	27.8 µM (inactive)	57.7 µM (inactive)	–	67.6 µM (inactive)	16.3 µM (inactive)	86.3 µM	> 100 µM (inactive)	30.6 µM (inactive)	60.8 µM (inactive)	72.1 µM (inactive)	32.1 µM (inactive)	20.4 µM (inactive)
CCCC[P+](CCCC)(CCCC)C(C(=O)OC)C(C(=O)OC)=C1SC(C(=O)OC)=C(C(=O)OC)S1 (configuration not stated)	> 100 µM (inactive)	> 100 µM (inactive)	> 100 µM (inactive)	> 100 µM (inactive)	> 100 µM (inactive)	> 100 µM (inactive)	> 100 µM (inactive)	> 100 µM (inactive)	> 100 µM (inactive)	> 100 µM (inactive)	> 100 µM (inactive)	> 100 µM (inactive)	> 100 µM	> 100 µM (inactive)	–	> 100 µM (inactive)	> 100 µM (inactive)	> 100 µM (inactive)	> 100 µM (inactive)
C=CCN(Cc1ccncc1)C(=O)C(O)(c1ccccc1)c1ccccc1	11.8 µM (inactive)	76.4 µM (inactive)	57.3 µM (inactive)	39.9 µM (inactive)	17.7 µM (inactive)	> 100 µM (inactive)	–	48.2 µM (inactive)	27.8 µM (inactive)	> 100 µM (inactive)	59.3 µM (inactive)	56 µM (inactive)	65.9 µM	79.3 µM (inactive)	45.2 µM (inactive)	39.1 µM (inactive)	34.3 µM (inactive)	32.7 µM (inactive)	59.3 µM (inactive)
CCOC(=O)N(Cc1cccs1)c1cc(OC)c(OC)c(OC)c1	40.6 µM (inactive)	> 100 µM (inactive)	> 100 µM (inactive)	54.1 µM (inactive)	3.01 µM (inactive)	> 100 µM (inactive)	–	> 100 µM (inactive)	13.6 µM (inactive)	75 µM (inactive)	58.2 µM (inactive)	> 100 µM (inactive)	62.4 µM	94.6 µM (inactive)	26.2 µM (inactive)	40 µM (inactive)	32.6 µM (inactive)	21.3 µM (inactive)	70.1 µM (inactive)
Cc1ccnc2sc3ccccc3c(=O)c12	25.9 µM (inactive)	48.9 µM (inactive)	50.1 µM (inactive)	55.3 µM (inactive)	48.5 µM (inactive)	40.4 µM (inactive)	54 µM (inactive)	32 µM (inactive)	26 µM (inactive)	29.3 µM (inactive)	38.4 µM (inactive)	44.9 µM (inactive)	52.2 µM	–	42.8 µM (inactive)	17.6 µM (inactive)	34.7 µM (inactive)	54.8 µM (inactive)	30.3 µM (inactive)
COc1cc2c[n+](C)c3c4ccccc4ccc3c2cc1OC	2.92 µM (inactive)	3.42 µM (inactive)	16.9 µM (inactive)	2.06 µM (inactive)	> 100 µM (inactive)	1.32 µM (inactive)	–	3.95 µM (inactive)	0.422 µM (active)	5.05 µM (inactive)	3.66 µM (inactive)	18.1 µM (inactive)	> 100 µM	0.845 µM (active)	1.4 µM (inactive)	4.6 µM (inactive)	0.302 µM (active)	–	5.4 µM (inactive)
N=C(c1cccs1)C1(N2CCCCC2)CCCCC1	24.5 µM (inactive)	–	18.2 µM (inactive)	11.6 µM (inactive)	25.4 µM (inactive)	33.8 µM (inactive)	20.8 µM (inactive)	42.2 µM (inactive)	15.7 µM (inactive)	16.6 µM (inactive)	16.6 µM (inactive)	20.3 µM (inactive)	14.8 µM	27.7 µM (inactive)	16.4 µM (inactive)	14.9 µM (inactive)	14.8 µM (inactive)	16.9 µM (inactive)	17.3 µM (inactive)
COc1ccc(-c2nc(-c3ccc(OC)cc3)n(-c3ccccc3)n2)cc1	38.5 µM (inactive)	> 100 µM (inactive)	> 100 µM (inactive)	22.9 µM (inactive)	> 100 µM (inactive)	> 100 µM (inactive)	52 µM (inactive)	> 100 µM (inactive)	16.1 µM (inactive)	50.2 µM (inactive)	> 100 µM (inactive)	68.7 µM (inactive)	> 100 µM	56.6 µM (inactive)	–	86.5 µM (inactive)	11.8 µM (inactive)	–	19.9 µM (inactive)
CC(=O)Oc1ccccc1-c1cc2ccccc2oc1=O	> 100 µM (inactive)	> 100 µM (inactive)	91.2 µM (inactive)	97.7 µM (inactive)	76.9 µM (inactive)	> 100 µM (inactive)	–	> 100 µM (inactive)	> 100 µM (inactive)	> 100 µM (inactive)	> 100 µM (inactive)	> 100 µM (inactive)	> 100 µM	> 100 µM (inactive)	> 100 µM (inactive)	–	61.1 µM (inactive)	> 100 µM (inactive)	> 100 µM (inactive)
CCOC(=O)Cn1nnc2cc(Nc3nc4ccccc4nc3C(=O)OCC)ccc21	> 100 µM (inactive)	> 100 µM (inactive)	26.4 µM (inactive)	> 100 µM (inactive)	64.9 µM (inactive)	> 100 µM (inactive)	20.9 µM (inactive)	> 100 µM (inactive)	> 100 µM (inactive)	–	> 100 µM (inactive)	> 100 µM (inactive)	> 100 µM	> 100 µM (inactive)	> 100 µM (inactive)	> 100 µM (inactive)	> 100 µM (inactive)	> 100 µM (inactive)	> 100 µM (inactive)
O=C1c2cc3ccccc3cc2C2(c3ccc(Cl)cc3)N[C@H]3CCCC[C@@H]3N12 (some centres not stated)	20 µM (inactive)	12.3 µM (inactive)	13.8 µM (inactive)	7.4 µM (inactive)	14.2 µM (inactive)	16.6 µM (inactive)	27.8 µM (inactive)	5.68 µM (inactive)	40.4 µM (inactive)	13.3 µM (inactive)	24.7 µM (inactive)	2.59 µM (inactive)	21.6 µM	9.62 µM (inactive)	26.9 µM (inactive)	15 µM (inactive)	–	14.7 µM (inactive)	14.4 µM (inactive)
COC(=O)C(CC(C)C)NC(=O)C(Cc1ccccc1)NC(=O)C1CCCN1C(=O)C(CO)NC(=O)c1ccc(-c2ccc(Cl)cc2Cl)o1 (configuration not stated) (X38-SPFL-OMe; configuration not given here)	25.6 µM (inactive)	52.1 µM (inactive)	19.5 µM (inactive)	28.9 µM (inactive)	28.8 µM (inactive)	32.1 µM (inactive)	21.2 µM (inactive)	22.6 µM (inactive)	22.2 µM (inactive)	15.5 µM (inactive)	27.5 µM (inactive)	19.9 µM (inactive)	24 µM	26.1 µM (inactive)	27.8 µM (inactive)	23.8 µM (inactive)	28.1 µM (inactive)	–	17.6 µM (inactive)
